Laboratory results reported in PMC12906832, “Transgenic Tobacco Plants Expressing Synthetic Peptides: A Functional and Structural Analysis for Pathogen Resistance” (Plant Biotechnology Journal, 2025).
No end group written: not given here.

What was measured:
[1] = Plant extract stability assay (RP-HPLC); assay type: in vitro ADME, Nicotiana tabacum; details: tobacco leaf extract (20% v/v) containing plant proteases; 1 mg peptide in 20% v/v tobacco leaf extract in 10 mM phosphate buffer pH 7.4, 37°C, stopped with 1% TFA, RP-HPLC C18 peak integration, mean ± SEM n = 3
Experimental: The stability of VR18 and KG18 in the presence of plant proteases present in plant leaf extract was monitored using a modified version of a previously reported protocol (Li et al. [2002]). Briefly, 1 g of 1‐month‐old tobacco leaf ( Nicotiana tabacum ) was crushed in liquid nitrogen, followed by extraction in 10 mM phosphate buffer (pH 7.4). The suspension was pelleted at 13500× g for 5 min, and the supernatant was collected. 1 mg of the respective peptide was added to a stock of 20% v/v plant extract in 10 mM phosphate buffer (pH 7.4) and incubated at 37°C. 100 μL of aliquots were withdrawn at appropriate time intervals, and the reaction was stopped using 1% trifluoroacetic acid (TFA). Plant extract (20% v/v) was used as a negative control. The aliquots were subjected to a LC‐20AT reverse phase HPLC system (SHIMADZU, Japan) equipped with a Phenomenix C18 column (250 × 10 mm, pore size 100 Å, particle size 5 μm) at room temperature, using acetonitrile and water with 0.1% TFA as the solvents. A flow rate of 1 mL/min was maintained. The percentage of peptide remaining in the plant extract at different time intervals was analysed by peak integration using […] software, and the area obtained was normalised with respect to the free peptide without the plant extract.

[2] = test system: Xanthomonas campestris pv. vesicatoria, X. campestris pv. campestris, X. oryzae pv. oryzae, Pseudomonas syringae pv. tabaci; details: 72 h
HEK293 cells = test: MTT cell viability assay; assay type: cell-based, human; details: 24 h, concentrations up to 4× MIC99%, triplicate
Experimental: For details, please see section 1.2 of Supporting Information.
(§1) 1. Experimental Procedures
(§2) 1.1. Membrane permeabilization assay
(§3) Pseudomonas syringae pv. tabaci cells were grown till mid-logarithmic phase. The cells were […]
(§4) obtain a suspension containing 10^5 CFU/ml. 10µM of Propidium Iodide (Sigma Aldrich Co., St.
(§5) Louis, USA) was added to the cell suspension and incubated at room temperature, under shaking […]
(§6) fluorescence intensity was measured at 25 °C for 30 min at an excitation and emission wavelength of 535 nm and 617 nm respectively. After obtaining the fluorescence intensity of the stabilized cells, peptides were added at increasing concentrations, and the increase in fluorescence intensity was recorded. […]
(§7) HEK293 cell viability was monitored by MTT assay. […] Cell viability was then assessed by incubating the control and peptide treated cells using 100 µl of MTT (2mg/ml) for 3 h. The formazan crystals formed were dissolved in dimethyl sulfoxide (DMSO) and absorbance at 570 nm was recorded using SpectraMax M3 (Softmax Pro 6.3) multiplate reader. […] Cell viability was calculated using the equation: […]
1.3. […] A readseq program, (http://iubio.bio.indiana.edu/soft/molbio/readseq/) is used by the server that reads the protein sequences in standard formats like EMBL, FASTA, GCG or plain text format (Saha & Raghava, 2006). […]

[3] = test system: Pseudomonas syringae pv. tabaci cells; test: Membrane permeabilization assay (propidium iodide uptake); assay type: cell-based; details: within 30 min of treatment, 10 µM PI, 10 mM phosphate buffer pH 7.4, normalised to Polymyxin B, n = 3
Experimental: Pseudomonas syringae pv. tabaci cells were prepared and incubated with Propidium Iodide. The increase in fluorescence intensity was checked upon the addition of peptides. For details, please see section 1.1 of Supporting Information.
as §1, §2, §3, §4, §5
as §6, with “recorded. Normalization was done using measurement of cells treated with Polymyxin B that served as control.” for “recorded.”
as §7

Substance	half-life [1]	IC50 [2]	minimal inhibitory concentration (MIC99%) [2]	cytotoxic effect on HEK 293 cells (MTT) (HEK293 cells)	propidium iodide (PI) uptake [3]
KNKSRVARGWGRKCPLFG [KG18]	> 60 min	2.75 to 5.5 µM	3 to 10 µM	no toxicity	
Polymyxin B					maximum PI uptake
VARGWGRKCPLFGKNKSR [VR18]	> 60 min	1.5 to 4.25 µM	3 to 10 µM	no toxicity	
